Bridge positions count the residues as written; N and C are the ends. Square brackets hold non-standard residues; d marks the D form. Peptide text beside a SMILES is read from it. * marks the point of attachment. Bip = N[C@@H](Cc1ccc(-c2ccccc2)cc1)C(=O)O; Phe(3-Me) = Cc1cccc(C[C@H](N)C(=O)O)c1; Cha = N[C@@H](CC1CCCCC1)C(=O)O; Cit = NC(=O)NCCC[C@H](N)C(=O)O; Carboxymethyl = O=C(O)C*; Orn = NCCC[C@H](N)C(=O)O; Aun = NCCCCCCCCCCC(=O)O; Dab = NCC[C@H](N)C(=O)O; Dap = NC[C@H](N)C(=O)O; Sar = CNCC(=O)O

For the experiment, the target named is T1, PD-1/PD-L1 interaction (PE-labeled human PD-L1-Ig binding to Jurkat cell line over-expressing human PD-1) (Homo sapiens, UniProt Q15116).
T1 construct: expressed in transfected cells; host or cells: Jurkat
T1 sequence (Q15116 25-288): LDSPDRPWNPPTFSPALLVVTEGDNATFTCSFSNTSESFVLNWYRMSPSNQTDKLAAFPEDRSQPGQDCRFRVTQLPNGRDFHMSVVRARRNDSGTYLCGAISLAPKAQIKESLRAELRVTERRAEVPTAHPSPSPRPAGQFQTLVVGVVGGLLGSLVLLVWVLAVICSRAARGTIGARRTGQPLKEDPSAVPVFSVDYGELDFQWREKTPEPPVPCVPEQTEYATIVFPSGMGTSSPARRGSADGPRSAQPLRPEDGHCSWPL
The experiment in a line: Jurkat-PD-1 Cell Binding High-Content Screening Assay (CBA). The experiment is classed as cell-based. The note with it: Jurkat cell line over-expressing human PD-1; PE-labeled PD-L1-Ig 20 nM final; read-out: Jurkat hPD1-PDL1 IC50. The gist of the method:
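First, compound is added to PD-1-expressing Jurkat cells in serum-containing DMEM and left 2 h at 37° C. Next, PE-conjugated PD-L1-Ig is introduced at 20 nM final concentration for 1 hour. Finally, cells are fixed in 4% paraformaldehyde with Hoechst 33342, washed and imaged.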
`CC(C)C[C@H]1NC(=O)[C@H](CCCN)NC(=O)[C@H](CCCNC(N)=O)NC(=O)[C@H](Cc2ccc(-c3ccccc3)cc2)NC(=O)[C@H](Cc2ccc(O)cc2)NC(=O)[C@H](Cc2c[nH]c3ccccc23)NC(=O)[C@H](CC(=O)O)NC(=O)[C@H](Cc2ccc(OCC(=O)O)cc2)NC(=O)[C@H](CCCNC(=N)N)NC(=O)CSC[C@@H](C(=O)N[C@@H](CCN)C(=O)NCCCCCCCCCCC(=O)O)NC(=O)[C@H]([C@@H](C)O)NC(=O)[C@H](C(C)C)NC(=O)[C@H](CC2CCCCC2)NC(=O)[C@H](CCN)NC1=O` [Compound 2834] ({CH2CO}-RY(Carboxymethyl)DWY[Bip][Cit][Orn][dL][Dab][Cha]VTC[Dab][Aun]-OH; thioether N-14): the half-maximal inhibitory concentration (IC50) was determined as 0.0202 µM.
As to `Cc1cccc(C[C@@H]2NC(=O)[C@H](CC(=O)O)NC(=O)[C@H](Cc3ccc(OCC(=O)O)cc3)NC(=O)[C@H](CCCNC(=N)N)NC(=O)CSC[C@@H](C(=O)N[C@@H](CCCN)C(=O)NCCCCCCCCCCC(=O)O)NC(=O)[C@H]([C@@H](C)O)NC(=O)[C@H](C(C)C)NC(=O)[C@H](CC3CCCCC3)NC(=O)[C@H](CCN)NC(=O)[C@@H](CC(C)C)NC(=O)[C@H](CCCN)NC(=O)[C@H](CCCNC(N)=O)NC(=O)[C@H](Cc3ccc(-c4ccccc4)cc3)NC(=O)[C@H](Cc3ccc(O)cc3)NC2=O)c1` [Compound 2835] ({CH2CO}-RY(Carboxymethyl)D[Phe(3-Me)]Y[Bip][Cit][Orn][dL][Dab][Cha]VTC[Orn][Aun]-OH; thioether N-14), the IC50 turned out to be 0.0189 µM.
The result for `Cc1cccc(C[C@@H]2NC(=O)[C@H](CC(=O)O)NC(=O)[C@H](Cc3ccc(OCC(=O)O)cc3)NC(=O)[C@H](CCCNC(=N)N)NC(=O)CSC[C@@H](C(=O)N[C@@H](CCN)C(=O)NCCCCCCCCCCC(=O)O)NC(=O)[C@H]([C@@H](C)O)NC(=O)[C@H](C(C)C)NC(=O)[C@H](CC3CCCCC3)NC(=O)[C@H](CCN)NC(=O)[C@@H](CC(C)C)NC(=O)[C@H](CCCN)NC(=O)[C@H](CCCNC(N)=O)NC(=O)[C@H](Cc3ccc(-c4ccccc4)cc3)NC(=O)[C@H](Cc3ccc(OCC(=O)O)cc3)NC2=O)c1` [Compound 2836] ({CH2CO}-RY(Carboxymethyl)D[Phe(3-Me)]Y(Carboxymethyl)[Bip][Cit][Orn][dL][Dab][Cha]VTC[Dab][Aun]-OH; thioether N-14) reads 0.0164 µM; that for `Cc1cccc(C[C@@H]2NC(=O)[C@H](CC(=O)O)NC(=O)[C@H](Cc3ccc(OCC(=O)O)cc3)NC(=O)[C@H](CCCNC(=N)N)NC(=O)CSC[C@@H](C(=O)N[C@@H](CCCN)C(=O)NCCCCCCCCCCC(=O)O)NC(=O)[C@H]([C@@H](C)O)NC(=O)[C@H](C(C)C)NC(=O)[C@H](CC3CCCCC3)NC(=O)[C@H](CCN)NC(=O)[C@@H](CC(C)C)NC(=O)[C@H](CCCNC(N)=O)NC(=O)[C@H](Cc3ccc(OCC(=O)O)cc3)NC(=O)[C@H](Cc3ccc(-c4ccccc4)cc3)NC(=O)[C@H](Cc3ccc(OCC(=O)O)cc3)NC2=O)c1` [Compound 2838] ({CH2CO}-RY(Carboxymethyl)D[Phe(3-Me)]Y(Carboxymethyl)[Bip]Y(Carboxymethyl)[Cit][dL][Dab][Cha]VTC[Orn][Aun]-OH; thioether N-14), 0.0302 µM; that for `Cc1cccc(C[C@@H]2NC(=O)[C@H](CC(=O)O)NC(=O)[C@H](Cc3ccc(OCC(=O)O)cc3)NC(=O)[C@H](CN)NC(=O)CSC[C@@H](C(=O)N(C)CC(=O)N[C@@H](CCC(=O)O)C(=O)NCCCCCCCCCCC(=O)O)NC(=O)[C@H]([C@@H](C)O)NC(=O)[C@H](C(C)C)NC(=O)[C@H](CC3CCCCC3)NC(=O)[C@H](CCN)NC(=O)[C@@H](CC(C)C)NC(=O)[C@H](CCCN)NC(=O)[C@H](CCCNC(N)=O)NC(=O)[C@H](Cc3ccc(-c4ccccc4)cc3)NC(=O)[C@H](C(C)C)NC2=O)c1` [Compound 2839] ({CH2CO}-[Dap]Y(Carboxymethyl)D[Phe(3-Me)]V[Bip][Cit][Orn][dL][Dab][Cha]VTC[Sar]E[Aun]-OH; thioether N-14), 0.186 µM.

Source of the values: patent US20260022142A1, “MACROCYCLIC IMMUNOMODULATORS” (Bristol-Myers Squibb Company, priority 2022, published 2026).
